Experimental data taken from PubChem BioAssay (NCI).
Where “and” joins values, the source holds several entries; their conditions need not be identical. Equal entries are not always repeated.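 Tested at 5 concentrations; 48 h exposure; 96-well plates; endpoints linearly interpolated, else capped at highest concentration. Here, GI50 denotes the concentration required for 50% inhibition of growth. At the TGI there is no net growth.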

Tests used:
Assay in all cases: inhibition of tumour cell growth, NCI panel, 48 h
BT-549 breast = test system: BT-549 breast
U251 CNS = test system: U251 CNS
NCI/ADR-RES ovarian = test system: NCI/ADR-RES ovarian
HOP-62 NSCLC = test system: HOP-62 NSCLC
CAKI-1 renal = test system: CAKI-1 renal
NCI-H522 lung = test system: NCI-H522 lung
NCI-H23 lung = test system: NCI-H23 lung
ACHN renal = test system: ACHN renal
MDA-MB-231 breast = test system: MDA-MB-231 breast
SF-295 CNS = test system: SF-295 CNS

SMILES	GI50 (BT-549 breast)	TGI (BT-549 breast)	GI50 (U251 CNS)	TGI (U251 CNS)	GI50 (NCI/ADR-RES ovarian)	TGI (NCI/ADR-RES ovarian)	GI50 (HOP-62 NSCLC)	TGI (HOP-62 NSCLC)	GI50 (CAKI-1 renal)	TGI (CAKI-1 renal)	GI50 (NCI-H522 lung)	TGI (NCI-H522 lung)	GI50 (NCI-H23 lung)	TGI (NCI-H23 lung)	GI50 (ACHN renal)	TGI (ACHN renal)	GI50 (MDA-MB-231 breast)	TGI (MDA-MB-231 breast)	GI50 (SF-295 CNS)	TGI (SF-295 CNS)
COc1ccc2c(c1)C(=O)/C(=C/c1cccc(OCC(=O)c3ccccc3)c1)CC2	27.1 µM	> 100 µM	16.8 µM	> 100 µM	5.42 µM	93.9 µM	42.5 µM	> 100 µM	13 µM	> 100 µM	8.84 µM	> 100 µM	18.9 µM	> 100 µM	31.8 µM	> 100 µM	69.9 µM	> 100 µM	10.3 µM	> 100 µM
Cc1ccc(S(=O)(=O)SC/C=C\CSS(=O)(=O)c2ccc(C)cc2)cc1		25.4 µM		66.3 µM and 34.7 µM		> 100 µM		> 100 µM		88.9 µM and 45.7 µM	3.79 µM and 17.1 µM	15.6 µM and 30.8 µM		73.9 µM and 34.7 µM		> 100 µM and 83.6 µM		> 31.6 µM		> 95.7 µM and 50.7 µM
CCc1c2c(nc3ccc(OCc4ccc(B(O)O)cc4)cc13)-c1cc3c(c(=O)n1C2)COC(=O)[C@]3(O)CC	0.0432 µM	> 26.5 µM	< 0.01 µM		0.0766 µM		< 0.01 µM		< 0.0143 µM	0.361 µM	< 0.0183 µM		< 0.01 µM	0.304 µM	< 0.0179 µM	0.589 µM	1.37 µM	> 89.5 µM	< 0.01 µM	7.53 µM
CC(=O)Nc1ccc(-c2cc(C(=O)O)c3cc4ccccc4cc3n2)cc1		> 100 µM		> 100 µM		> 100 µM		> 100 µM		> 100 µM		> 100 µM		> 100 µM		> 100 µM		> 100 µM		> 100 µM
Cc1c2cnccc2c(C)c2c1c1cc(C#N)ccc1n2C	0.406 µM	1.97 µM	0.204 µM	1.12 µM	0.117 µM	0.736 µM	0.115 µM	1.42 µM	0.0929 µM	1.34 µM	0.167 µM	0.817 µM	0.172 µM	0.649 µM	0.0457 µM	0.456 µM	0.237 µM	1.1 µM	0.201 µM	0.859 µM
COc1ccc(-c2noc(C(=O)O)c2-c2cc(OC)c(OC)c(OC)c2)cc1	17.9 µM	> 100 µM	4.65 µM	> 100 µM	1.47 µM	> 100 µM	3.82 µM	> 100 µM	2.35 µM	> 100 µM	1.59 µM	> 100 µM	9.17 µM	> 100 µM	7.42 µM	> 100 µM	7.66 µM	> 100 µM	1.57 µM	> 100 µM
C/C(=N/O)c1cccc(Nc2cc(-n3nnc4ccccc43)nc3ccccc23)c1	19.5 µM	54.7 µM	20.4 µM	> 100 µM	8.36 µM	27.9 µM	20.5 µM	44.2 µM	16.8 µM	43.5 µM	19.4 µM	> 57.5 µM	15.7 µM	35.5 µM	14.2 µM	46.6 µM	7.2 µM	> 23.4 µM	5.62 µM	19.8 µM
O=S(=O)(Nc1ccc(Br)cc1)c1ccc(-c2cnc(C3CC3)o2)cc1	3.37 µM	19.4 µM	3.31 µM	18.2 µM	1 µM	10.4 µM	2.37 µM	16.6 µM	1.07 µM	15.1 µM	0.855 µM	12.9 µM	2.99 µM	15.1 µM	4.9 µM	17.5 µM	3.77 µM	17.8 µM	1.13 µM	11.8 µM
FC(F)(F)c1cccc(-c2nc3nc(Cl)c(Cl)nc3[nH]2)c1		51.8 µM		13.6 µM		> 100 µM		23.5 µM		11 µM		4.11 µM		14.7 µM		> 28.2 µM		8.39 µM		> 100 µM
COc1cc(/C=C/C(=O)/C=C/c2cc(OC)c3c(c2)OCO3)cc2c1OCO2	3.02 µM	8.81 µM	2.19 µM	6.45 µM	52.8 µM	> 100 µM	4.46 µM	> 100 µM	> 100 µM	> 100 µM	14.5 µM	> 100 µM	7.69 µM	> 100 µM	7.25 µM	> 100 µM	7.89 µM	> 100 µM	11.3 µM	> 100 µM
CCN1C(=O)N(CC)C2C1NN=c1s/c(=C\c3ccc(Cl)cc3Cl)c(=O)n12 (stereo not given)	0.0302 µM	2.48 µM	0.0365 µM	> 41.3 µM	0.0301 µM	> 32 µM	0.0469 µM	> 72.8 µM	0.0396 µM	25.7 µM	0.0216 µM	0.219 µM	0.0505 µM	> 100 µM	0.0513 µM	> 51.2 µM	0.0336 µM	4.79 µM	0.0315 µM	27.1 µM
O=C(c1ccc2ccccc2c1)c1c(C(F)(F)F)n([O-])c2ccc(C(F)(F)F)cc2[n+]1=O	0.278 µM	0.751 µM	0.302 µM	0.742 µM	1.7 µM	4.75 µM	1.95 µM	3.58 µM	0.28 µM	0.73 µM	0.505 µM	1.09 µM	3.4 µM	10.2 µM	0.566 µM	1.71 µM	1.48 µM	2.95 µM	1.29 µM	2.74 µM
N#CC(C#N)=C/C=C(\Cl)c1ccc(Cl)cc1	8.32 µM	22 µM	6.9 µM	> 43.7 µM	4.57 µM	16.2 µM	14.3 µM	31.3 µM	3.78 µM	12.6 µM	5.81 µM	> 49.6 µM	2.66 µM	9.04 µM	9.96 µM	37.2 µM	2.54 µM	14 µM	9.73 µM	36.4 µM
CC1CC(C)CC(C)C(O)/C(C#N)=C/C=C/CC(C2CCCC2C(=O)O)OC(=O)CC(O)C(C)C1 (stereo not given)	0.0501 µM	0.636 µM and 0.321 µM		0.0547 µM and 0.0449 µM	0.187 µM and < 0.0196 µM	0.265 µM	0.0183 µM	0.108 µM and 0.0648 µM	0.0166 µM	0.254 µM and 0.221 µM	0.00266 µM	0.0137 µM and < 0.0119 µM	0.0183 µM and < 0.0105 µM	0.0919 µM and 0.0221 µM	0.0326 µM	0.148 µM and 0.181 µM	0.0193 µM	0.0706 µM		0.203 µM and 0.222 µM
C=CCc1c(Cl)nc(Cl)nc1Cl		0.641 µM		1.74 µM		> 49.4 µM		1.07 µM		0.0367 µM		0.19 µM		1.81 µM		1.2 µM		1.82 µM		3.94 µM
O=C(O)c1nc(NCc2nc3cc(Cl)ccc3o2)n[nH]1	> 100 µM	> 100 µM	> 100 µM	> 100 µM	> 100 µM	> 100 µM	> 100 µM	> 100 µM	> 100 µM	> 100 µM	> 100 µM	> 100 µM	> 100 µM	> 100 µM	> 100 µM	> 100 µM	> 100 µM	> 100 µM	> 100 µM	> 100 µM
c1ccc(-c2nc(-c3ccccn3)nc(-c3ccccn3)n2)nc1	44.6 µM	> 100 µM	48.6 µM	> 100 µM	6.37 µM	> 100 µM	30.4 µM	> 100 µM	3.88 µM	34.3 µM	21.6 µM	81.8 µM	54.9 µM	> 100 µM	22.1 µM	> 100 µM	32.6 µM	> 100 µM	21.2 µM	> 100 µM
COc1ccc(C2=Nn3c(nnc3-c3cc(Cl)cc(Cl)c3Cl)SC2)cc1	0.661 µM	> 21.9 µM	0.412 µM	24.7 µM	0.248 µM	1.26 µM	0.478 µM	> 36.2 µM	0.562 µM	> 49.7 µM	0.256 µM	2.51 µM	0.701 µM	> 100 µM	0.859 µM	> 100 µM	0.81 µM	26.2 µM	0.0576 µM	1.4 µM
CC1=C([Se]CC(OC(=O)CC[Se]c2ccccc2)C(=O)NC(C)(C)C)C(=O)c2ccccc2C1=O (stereo not given)	1.64 µM	3.15 µM	1.14 µM	3.77 µM	1.63 µM	3.18 µM	0.357 µM	1.7 µM	2.37 µM	4.58 µM	1.67 µM	3.34 µM	1.56 µM	3.11 µM	1.86 µM	3.69 µM	1.55 µM	3.01 µM	0.316 µM	1.37 µM
c1ccc(C2ONC3=NCCN32)cc1 (stereo not given)	79.6 µM	> 100 µM	55 µM	> 100 µM	25.8 µM	88.6 µM	49.4 µM	> 100 µM	36.1 µM	> 100 µM	44.5 µM	> 100 µM	66.2 µM	> 100 µM	41.9 µM	> 100 µM	37.2 µM	> 100 µM	48.3 µM	> 100 µM
